In ChEMBL document CHEMBL5325461, “Effect of a new squalene synthase inhibitor on an ApoE-/- mouse model of atherosclerosis” (Bioorg Med Chem, 2023):
Calls of active or inactive are those of the source. No cut-off for these calls is given here.

Assays:
Mus musculus [1] = assay: Antihypercholesterolemic activity in atherogenic western diet fed SKH2 mouse model assessed as increase in HDL level at 56 umol/kg, ip administered twice daily for 3.5 months relative to control; type: functional; settings: dose 56 µmol/kg, 2555 h
Mus musculus [2] = assay: Antiatherosclerotic activity in atherogenic western diet fed ApoE-/- C57BL/6 mouse model assessed as reduction in atheromatic spots in aortic arch at 56 umol/kg, ip administered twice daily for 3.5 months by H&E staining based analysis; type: functional, organism-based; settings: dose 56.0 µmol/kg
Mus musculus [3] = assay: Antihyperglycemic activity in atherogenic western diet fed ApoE-/- C57BL/6 mouse model assessed as decrease in glucose level at 56 umol/kg, ip administered twice daily for 3.5 months by glucometer analysis relative to control; type: functional; design: scale not given: the % may be the effect or the level left; settings: dose 56 µmol/kg, 2555 h
Mus musculus [4] = assay: Antiatherosclerotic activity in atherogenic western diet fed ApoE-/- C57BL/6 mouse model assessed as reduction in atheromatic lesions in aortic sinus at 56 umol/kg, ip administered twice daily for 3.5 months by H&E staining based analysis; type: functional, organism-based; settings: dose 56.0 µmol/kg
[5] = Hepatotoxicity in atherogenic western diet fed ApoE-/- C57BL/6 mouse model assessed as increase in SGPT level at 56 umol/kg, ip administered twice daily for 3.5 months; type: toxicity, organism-based; settings: in vivo, 2555 h, dose 56 µmol/kg
Mus musculus [6] = assay: Antiatherosclerotic activity in atherogenic western diet fed ApoE-/- C57BL/6 mouse model assessed as decrease in LDL level in plasma at 56 umol/kg, ip administered twice daily for 3.5 months; type: functional, organism-based; settings: dose 56.0 µmol/kg
Mus musculus [7] = assay: Antiatherosclerotic activity in atherogenic western diet fed ApoE-/- C57BL/6 mouse model assessed as reduction in lesion area in ascending aorta at 56 umol/kg, ip administered twice daily for 3.5 months by H&E staining based analysis; type: functional, organism-based; settings: dose 56.0 µmol/kg
[8] = Hepatotoxicity in atherogenic western diet fed ApoE-/- C57BL/6 mouse model assessed as edema at 56 umol/kg, ip administered twice daily for 3.5 months; type: toxicity, organism-based; settings: in vivo, 2555 h, dose 56 µmol/kg
[9] = Toxicity in western diet fed ApoE-/- C57BL/6 mouse model assessed as weight change at 56 umol/kg, ip administered twice daily for 3.5 months; type: organism-based; settings: in vivo, 2555 h, dose 56 µmol/kg
Mus musculus [10] = assay: Antiatherosclerotic activity in atherogenic western diet fed ApoE-/- C57BL/6 mouse model assessed as reduction in atherosclerosis severity in ascending aorta at 56 umol/kg, ip administered twice daily for 3.5 months by H&E staining based analysis; type: functional, organism-based; settings: dose 56.0 µmol/kg
Mus musculus [11] = assay: Antihypercholesterolemic activity in atherogenic western diet fed SKH2 mouse model assessed as decrease in total cholesterol level at 56 umol/kg, ip administered twice daily for 3.5 months relative to control; type: functional; design: scale not given: the % may be the effect or the level left; settings: dose 56 µmol/kg, 2555 h
Mus musculus [12] = assay: Antioxidant activity in atherogenic western diet fed ApoE-/- C57BL/6 mouse model assessed as decrease in MDA level at 56 umol/kg, ip administered twice daily for 3.5 months relative to control; type: functional; design: scale not given: the % may be the effect or the level left; settings: dose 56 µmol/kg, 2555 h
Mus musculus [13] = assay: Antiatherosclerotic activity in atherogenic western diet fed ApoE-/- C57BL/6 mouse model assessed as reduction in fat deposition in ascending aorta at 56 umol/kg, ip administered twice daily for 3.5 months by H&E staining based analysis; type: functional, organism-based; settings: dose 56.0 µmol/kg
Mus musculus [14] = assay: Antihypercholesterolemic activity in atherogenic western diet fed SKH2 mouse model assessed as decrease in LDL level at 56 umol/kg, ip administered twice daily for 3.5 months relative to control; type: functional; design: scale not given: the % may be the effect or the level left; settings: dose 56 µmol/kg, 2555 h
Mus musculus [15] = assay: Antiatherosclerotic activity in atherogenic western diet fed ApoE-/- C57BL/6 mouse model assessed as reduction in perimeter of ascending aorta covered by atheromatic spots/lesions at 56 umol/kg, ip administered twice daily for 3.5 months relative to control; type: functional; design: scale not given: the % may be the effect or the level left; settings: dose 56 µmol/kg, 2555 h
Mus musculus [16] = assay: Antiatherosclerotic activity in atherogenic western diet fed ApoE-/- C57BL/6 mouse model assessed as reduction in area of ascending aorta covered by atheromatic spots/lesions at 56 umol/kg, ip administered twice daily for 3.5 months relative to control; type: functional; design: scale not given: the % may be the effect or the level left; settings: dose 56 µmol/kg, 2555 h
Mus musculus [17] = assay: Antiatherosclerotic activity in atherogenic western diet fed ApoE-/- C57BL/6 mouse model assessed as decrease in LDL level in plasma at 56 umol/kg, ip administered twice daily for 3.5 months relative to control; type: functional; design: scale not given: the % may be the effect or the level left; settings: dose 56 µmol/kg, 2555 h
Mus musculus [18] = assay: Antiatherosclerotic activity in atherogenic western diet fed ApoE-/- C57BL/6 mouse model assessed as reduction in atheromatic lesions in aortic arch at 56 umol/kg, ip administered twice daily for 3.5 months by H&E staining based analysis; type: functional, organism-based; settings: dose 56.0 µmol/kg
Mus musculus [19] = assay: Antiatherosclerotic activity in atherogenic western diet fed ApoE-/- C57BL/6 mouse model assessed as decrease in total cholesterol level in plasma at 56 umol/kg, ip administered twice daily for 3.5 months relative to control; type: functional; design: scale not given: the % may be the effect or the level left; settings: dose 56 µmol/kg, 2555 h
[20] = Hepatotoxicity in atherogenic western diet fed ApoE-/- C57BL/6 mouse model assessed as effect on ALP level at 56 umol/kg, ip administered twice daily for 3.5 months; type: toxicity, organism-based; settings: in vivo, 2555 h, dose 56 µmol/kg
Mus musculus [21] = assay: Antiatherosclerotic activity in atherogenic western diet fed ApoE-/- C57BL/6 mouse model assessed as decrease in total cholesterol level in plasma at 56 umol/kg, ip administered twice daily for 3.5 months; type: functional, organism-based; settings: dose 56.0 µmol/kg
Mus musculus [22] = assay: Antiatherosclerotic activity in atherogenic western diet fed ApoE-/- C57BL/6 mouse model assessed as effect on HDL/LDL index in plasma at 56 umol/kg, ip administered twice daily for 3.5 months; type: functional, organism-based; settings: dose 56.0 µmol/kg
[23] = Hepatotoxicity in atherogenic western diet fed ApoE-/- C57BL/6 mouse model assessed as increase in SGOT level at 56 umol/kg, ip administered twice daily for 3.5 months; type: toxicity, organism-based; settings: in vivo, 2555 h, dose 56 µmol/kg
[24] = Hepatotoxicity in atherogenic western diet fed ApoE-/- C57BL/6 mouse model assessed as effect on GGT level at 56 umol/kg, ip administered twice daily for 3.5 months; type: toxicity, organism-based; settings: in vivo, 2555 h, dose 56 µmol/kg
[25] = Hepatotoxicity in atherogenic western diet fed ApoE-/- C57BL/6 mouse model assessed as degeneration at 56 umol/kg, ip administered twice daily for 3.5 months; type: toxicity, organism-based; settings: in vivo, 2555 h, dose 56 µmol/kg
Mus musculus [26] = assay: Antiatherosclerotic activity in atherogenic western diet fed ApoE-/- C57BL/6 mouse model assessed as reduction in atheromatic spots in aortic sinus at 56 umol/kg, ip administered twice daily for 3.5 months by H&E staining based analysis; type: functional, organism-based; settings: dose 56.0 µmol/kg

SMILES: Br.CN1CCOC(O)(c2ccc3c(c2)Sc2ccccc2N3)C1 (stereo unspecified)
- Activity (Mus musculus [1]): >100%
- Activity (Mus musculus [2]): Active
- Activity (Mus musculus [3]): 19%
- Activity (Mus musculus [4]): Active
- Activity [5]: Non-Toxic
- Activity (Mus musculus [6]): Active
- Activity (Mus musculus [7]): Active
- Activity [8]: Non-Toxic
- Activity [9]: Non-Toxic
- Activity (Mus musculus [10]): Active
- Activity (Mus musculus [11]): 53%
- Activity (Mus musculus [12]): 41%
- Activity (Mus musculus [13]): Active
- Activity (Mus musculus [14]): 76%
- Activity (Mus musculus [15]): 70%
- Activity (Mus musculus [16]): 55%
- Activity (Mus musculus [17]): 20%
- Activity (Mus musculus [18]): Active
- Activity (Mus musculus [19]): 20%
- Activity [20]: Non-Toxic
- Activity (Mus musculus [21]): Active
- Activity (Mus musculus [22]): Active
- Activity [23]: Non-Toxic
- Activity [24]: Non-Toxic
- Activity [25]: Non-Toxic
- Activity (Mus musculus [26]): Active
